# Measurements reported in patent US6251882A, “Alkyl ketones as potent anti-cancer agents” (Parker Hughes Institute, priority 1999, dated 2001).
# Counter-ions that a name gives are not always drawn. Residues, ends and D or L forms follow the SMILES beside them. *: point of attachment. Farnesyl = CC(C)=CCC/C(C)=C/CC/C(C)=C/C*; Boc = CC(C)(C)OC(=O)*; CH2Cl = ClC*
# What was measured:
# PC-3 (prostate cancer) = assay: MTT cytotoxicity assay, PC-3; format: cell-based; details: 24-36 hours at 37° C., 0.1 to 250 μM
# Method: (§1) Cytotoxicity of various compounds against tumor cells was performed using the MTT (3-[4,5-[…]]-2,5-diphenyl tetrazolium bromide) assay (Boehringer Mannheim Corp., Indianapolis, Ind.). Unless otherwise specified, all cell lines were obtained from the American Type Culture Collection (ATCC). Briefly, exponentially growing cells were seeded into a 96-well plate at a density of 2.5×10^4 cells/well and incubated for 36 hours at 37° C. prior to drug exposure. On the day of treatment, culture medium was carefully aspirated from the wells and replaced with fresh medium containing the indicated compound at concentrations ranging from 0.1 to 250 μM. Triplicate wells were used for each treatment.
# (§2) The cells were incubated with the various compounds for 24-36 hours at 37° C. in a humidified 5% CO2 atmosphere. To each well, 10 μl of MTT (0.5 mg/ml final concentration) was added and the plates were incubated at 37° C. for 4 hours to allow MTT to form formazan crystals by reacting with metabolically active cells. The formazan crystals were solubilized overnight at 37° C. in a solution containing 10% SDS in 0.01 M HCl. The absorbence of each well was measured in a microplate reader (Labsystems) at 540 nm and a reference wavelength of […]. To translate the OD540 values into the number of live cells in each well, the OD540 values were compared to those on standard OD540 --versus--cell number curves generated for each cell line. The percent survival was calculated using the formula: [formula]
# (§3) The IC50 values were calculated by non-linear regression analysis and are shown below in Tables 1-6.
# Nalm-6 (B-lineage ALL) = assay: MTT cytotoxicity assay, Nalm-6; format: cell-based; details: Homo sapiens, 24-36 hours at 37° C., 0.1 to 250 μM
# Method: as §1
# (§4) Human leukemic cell lines (NALM-6, MOLT-3) glioblastoma cells (U373) and human breast tumor cell lines (BT20 and MDA-MB-231) were obtained from the American Type Culture Collection and maintained as a continuous cell line in Dulbecco's modified Eagles's medium supplemented with 10% fetal bovine serum and antibiotics.
# as §2, §3
# BT-20 (breast cancer) = assay: MTT cytotoxicity assay, BT-20; format: cell-based; details: Homo sapiens, 24-36 hours at 37° C., 0.1 to 250 μM
# Method: as §1, §4, §2, §3
# Molt-3 (T-lineage ALL) = assay: MTT cytotoxicity assay, Molt-3; format: cell-based, human; details: Homo sapiens, MOLT-3, MTT, 24-36 hours at 37° C., 0.1 to 250 μM
# Method: as §1, §4, §2, §3
# U-373 (glioblastoma) = assay: MTT cytotoxicity assay, U-373; format: cell-based; details: Homo sapiens, U373 MG, 24-36 hours at 37° C., 0.1 to 250 μM
# Method: as §1, §4, §2, §3
SMILES,IC50 (PC-3 (prostate cancer)),IC50 (Nalm-6 (B-lineage ALL)),IC50 (BT-20 (breast cancer)),IC50 (Molt-3 (T-lineage ALL)),IC50 (U-373 (glioblastoma))
"CC(C)=CCC/C(C)=C/CC/C(C)=C/CSCCC(=O)C=[N+]=[N-] [HI-83, S-trans-trans-Farnesyl-mercaptoethyl diazomethyl ketone]",> 100 µM,53.5 µM,> 100 µM,6.8 µM,> 100 µM
"C=CCSC[C@H](NC(C)=O)C(=O)CCl [HI-419, N-Ac-S-allyl-cysteine chloromethyl ketone]",> 100 µM,4.3 µM,55.7 µM,7.3 µM,56.7 µM
"CC(=O)N[C@@H](CSCc1ccc2ccccc2c1)C(=O)CCl [HI-392, N-Ac-S-2-naphthylmethyl-cysteine chloromethyl ketone]",36.6 µM,2.6 µM,40.4 µM,2.9 µM,41.8 µM
"CC(C)=CCC/C(C)=C/CC/C(C)=C/CSCC(=O)CCl [HI-126, S-trans-trans-Farnesyl-mercaptomethyl chloromethyl ketone]",> 100 µM,84.3 µM,> 100 µM,> 100 µM,> 100 µM
"CCCCCCCCCCCCSC[C@@H](C=O)NC(C)=O [HI-274, N-Ac-S-dodecyl-Cys-H]",–,12.6 µM,22.8 µM,13.1 µM,> 100 µM
"CCCCCCCCCCCCOC[C@H](NC(=O)OC(C)(C)C)C(=O)CCl [HI-266, N-Boc-O-dodecyl serine chloromethyl ketone]",–,64.5 µM,49.9 µM,–,37.1 µM
"CCCCCCCCCCCCSC[C@H](NC(=O)c1ccccc1)C(=O)CCl [HI-491, N-Benzoyl-S-dodecyl-cysteine chloromethyl ketone]",52.1 µM,5.4 µM,> 100 µM,6.5 µM,> 100 µM
"CCCCCCCCCCCCSC[C@H](NC(=O)c1cccc(N(C)C)c1)C(=O)CCl [HI-268, N-3-Dimethylaminobenzoyl-S-dodecyl-cysteine chloromethyl ketone]",> 100 µM,96.1 µM,> 100 µM,–,> 100 µM
"CC(=O)N[C@@H](CSC/C=C(\C)CC/C=C(\C)CCC=C(C)C)C(=O)C=[N+]=[N-] [HI-367, N-Ac-S-trans-trans-farnesyl-Cys diazomethyl ketone]",> 100 µM,30.3 µM,> 100 µM,32.2 µM,> 100 µM
"CCCCCCCCCCCCOC[C@H](NC(C)=O)C(=O)CCl [HI-489, N-Ac-O-dodecyl-serine chloromethyl ketone]",> 100 µM,3.8 µM,> 100 µM,15.3 µM,> 100 µM
"CCCCCCCCCCCCSC[C@H](NC(C)=O)C(=O)CSCCC(=O)O [HI-273, N-Ac-S-dodecyl-Cys-CH2 -S-CH2 CH2 CO2 H]",> 100 µM,44.4 µM,20.1 µM,50.3 µM,> 100 µM
"CC(C)=CCC/C(C)=C/CC/C(C)=C/CSCC(=O)C=[N+]=[N-] [HI-84, S-trans-trans-Farnesyl-mercaptomethyl diazomethyl ketone]",> 100 µM,> 100 µM,> 100 µM,60.3 µM,> 100 µM
"CCCCCCCCCCCCSC[C@H](N)C(=O)CCl [HI-252, S-Dodecyl-Cys chloromethyl ketone hydrochloride]",> 100 µM,17.7 µM,> 100 µM,12.5 µM,> 100 µM
"CC(C)=CCC/C(C)=C/CC/C(C)=C/CSC[C@H](NC(=O)CNC(=O)OC(C)(C)C)C(=O)CCl [HI-130, N-Boc-Gly-S-trans-trans-farnesyl-Cys chloromethyl ketone] (Boc-Gly-Cys(Farnesyl)-CH2Cl)",> 100 µM,12.9 µM,> 100 µM,17.5 µM,71.3 µM
"CC(=O)N[C@@H](CSCC=C(C)C)C(=O)C=[N+]=[N-] [HI-123, N-Ac-S-(3-methyl-2-butenyl)-Cys diazomethyl ketone]",> 100 µM,> 100 µM,> 100 µM,> 100 µM,> 100 µM
